Activity calls are given as the source filed them.

The target of assay [1] is Induced myeloid leukemia cell differentiation protein Mcl-1 (Homo sapiens, UniProt Q07820). The assay is classed as functional.
Assay [2] addresses T1, Tyrosine-protein phosphatase non-receptor type 7 (Homo sapiens, UniProt P35236).
T1 sequence (P35236 whole entry): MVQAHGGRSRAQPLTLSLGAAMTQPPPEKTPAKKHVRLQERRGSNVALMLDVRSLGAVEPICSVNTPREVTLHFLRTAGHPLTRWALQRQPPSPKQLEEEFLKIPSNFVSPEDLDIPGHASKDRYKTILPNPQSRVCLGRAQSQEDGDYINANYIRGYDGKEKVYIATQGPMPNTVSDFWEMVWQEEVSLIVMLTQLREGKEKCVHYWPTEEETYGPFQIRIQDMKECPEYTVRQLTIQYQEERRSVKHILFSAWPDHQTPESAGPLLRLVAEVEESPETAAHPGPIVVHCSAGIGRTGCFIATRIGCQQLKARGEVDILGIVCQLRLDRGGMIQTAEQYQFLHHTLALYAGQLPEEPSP
Briefly: redox-dependent HePTP inhibition, mechanism study, biochemical, fluorescence (AID 2068). The assay is classed as functional.

The target in assay [3] is T2, Polyadenylate-binding protein 1 (Homo sapiens, UniProt P11940). Briefly: PABP1 MLLE–PAM2 interaction inhibitors, dose response, miRNA deadenylation inhibitor project, biochemical, fluorescence polarization, Cy5-PAM2 peptide, secondary (AID 602260). Type of assay: functional. The settings on record: read-out: IC50_Mean. For orientation: In fluorescence polarisation assays a small probe gives low polarisation when free and higher when bound to something large.

A further assay deals with Genome polyprotein (dengue virus type 2, UniProt P29990). In words: Dengue-2 NS5 methyltransferase inhibitors, primary screen, biochemical, confirmation dose response (AID 588689). Type of assay: functional.
For assay [4], the target named is T2, Polyadenylate-binding protein 1. In words: PABP1 MLLE–PAM2 binding inhibitor potency, dose response, biochemical, fluorescence polarization, FITC-PAM2 peptide (AID 602259). The assay is classed as functional. The settings on record: read-out: IC50_Mean.
The target in assay [5] is T3, Rac GTPase-activating protein 1 (Homo sapiens, UniProt Q9H0H5).
T3 sequence (Q9H0H5 whole entry): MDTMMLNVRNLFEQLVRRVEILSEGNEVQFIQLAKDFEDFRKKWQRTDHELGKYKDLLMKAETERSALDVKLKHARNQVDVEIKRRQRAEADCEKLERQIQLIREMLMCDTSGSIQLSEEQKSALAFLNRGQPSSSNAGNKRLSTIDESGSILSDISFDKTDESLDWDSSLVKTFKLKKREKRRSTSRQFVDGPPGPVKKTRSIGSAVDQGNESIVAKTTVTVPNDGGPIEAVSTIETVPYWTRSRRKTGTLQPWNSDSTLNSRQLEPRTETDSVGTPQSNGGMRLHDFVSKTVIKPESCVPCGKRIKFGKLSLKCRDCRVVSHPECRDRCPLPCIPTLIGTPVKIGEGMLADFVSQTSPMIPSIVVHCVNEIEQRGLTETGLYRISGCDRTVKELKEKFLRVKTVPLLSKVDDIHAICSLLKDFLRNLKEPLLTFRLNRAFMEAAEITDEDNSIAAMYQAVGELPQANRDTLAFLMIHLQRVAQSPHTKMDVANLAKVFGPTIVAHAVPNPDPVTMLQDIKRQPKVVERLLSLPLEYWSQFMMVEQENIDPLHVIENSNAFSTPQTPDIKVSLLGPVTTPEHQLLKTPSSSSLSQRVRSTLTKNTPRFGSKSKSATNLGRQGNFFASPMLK
In words: MgcRacGAP GTPase-activating activity inhibitors, confirmation, biochemical, ADP Hunter fluorescence, primary and confirmatory (AID 624330). Type of assay: functional.

In assay [6] the target is T4, DNA dC->dU-editing enzyme APOBEC-3G (Homo sapiens, UniProt Q9HC16). In words: Dose Response confirmation of small molecule APOBEC3G DNA Deaminase Inhibitors via a fluorescence-based single-stranded DNA deaminase assay. [Related pubchem assays (depositor defined):AID493012, AID493028]. Type of assay: functional.
For assay [7], the target named is T5, DNA dC->dU-editing enzyme APOBEC-3A (Homo sapiens, UniProt P31941). In words: APOBEC3A DNA deaminase inhibitors, dose response, biochemical (AID 504722). Type of assay: functional.
Assay [8] can be described thus: C. albicans growth with fluconazole, confirmation, fluorescence, retest (AID 2467). The assay is classed as functional, cell-based.
Assay [9] is described as follows: NIH-3T3 fibroblast cytotoxicity, dose response, cytotoxicity control, cell-based, fluorescence, Alamar Blue, secondary assay (AID 2327).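 Note: NIH-3T3 mouse fibroblasts cultured with fluconazole at 8 µg/mL.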 Type of assay: functional. For orientation: Alamar Blue is a resazurin reagent that responds to reducing activity.
Assay [10] has as its target NACHT, LRR and PYD domains-containing protein 3 (Homo sapiens, UniProt Q96P20). In words: NALP3 inhibitors in yeast, dose response, luminescent (AID 488799). Type of assay: functional.
In assay [11] the target is Diphosphomevalonate decarboxylase (Streptococcus pneumoniae serotype 2 (strain D39 / NCTC 7466), UniProt Q9FD53). In words: S. pneumoniae DPM-DC inhibition retest, confirmation, biochemical, cuvette format, coupled NADH fluorescence (AID 1028). Type of assay: functional.
The target of the next assay is Phosphomannomutase 2 (Homo sapiens, UniProt O15305). Briefly: Counter screen SAR assay for PMM2 inhibitors via a fluorescence intensity assay. [Related pubchem assays (depositor defined):AID1545, AID1574].
The target in assay [12] is Phosphoethanolamine/phosphocholine phosphatase (Homo sapiens, UniProt Q8TCT1). In words: SAR assay for compounds that inhibit PHOSPHO1. [Related pubchem assays (depositor defined):AID1545, AID1565, AID1574].
The target in assay [13] is T6, Alkaline phosphatase, tissue-nonspecific isozyme (Homo sapiens, UniProt P05186).
T6 sequence (P05186 whole entry): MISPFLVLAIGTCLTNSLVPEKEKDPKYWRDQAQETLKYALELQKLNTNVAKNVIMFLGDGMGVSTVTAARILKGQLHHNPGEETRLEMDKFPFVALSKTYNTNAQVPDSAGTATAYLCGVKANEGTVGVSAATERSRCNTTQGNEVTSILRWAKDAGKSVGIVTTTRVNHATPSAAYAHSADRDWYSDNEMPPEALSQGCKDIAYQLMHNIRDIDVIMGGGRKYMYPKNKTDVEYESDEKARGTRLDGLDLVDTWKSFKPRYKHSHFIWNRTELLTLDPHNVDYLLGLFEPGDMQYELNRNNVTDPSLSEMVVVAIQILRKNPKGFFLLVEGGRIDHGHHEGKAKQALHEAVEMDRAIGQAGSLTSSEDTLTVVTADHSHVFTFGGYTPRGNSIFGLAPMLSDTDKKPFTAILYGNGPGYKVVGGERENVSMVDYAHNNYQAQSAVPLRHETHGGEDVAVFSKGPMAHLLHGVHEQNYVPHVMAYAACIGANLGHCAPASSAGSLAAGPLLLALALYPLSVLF
In words: human TNAP enzyme inhibitors, SAR follow-up, biochemical, luminescent, dose response (AID 1056).

A further assay deals with CAAX prenyl protease 2 (Saccharomyces cerevisiae S288c, UniProt Q03530). The assay is classed as biochemical.
For assay [14], the target named is T5, DNA dC->dU-editing enzyme APOBEC-3A. In words: Dose Response confirmation of small molecule APOBEC3A DNA Deaminase Inhibitors via a fluorescence-based single-stranded DNA deaminase assay. [Related pubchem assays (depositor defined):AID493011, AID493024]. The assay is classed as functional.
Assay [15] has as its target T4, DNA dC->dU-editing enzyme APOBEC-3G. Type of assay: functional.
For assay [16], the target named is T2, Polyadenylate-binding protein 1. Briefly: PABP inhibition in translation initiation, SAR follow-up (AID 435018). The assay is classed as functional.
Assay [17] concerns the target T7, Eukaryotic translation initiation factor 4H (Homo sapiens, UniProt Q15056). In words: eIF4H inhibition in translation initiation, SAR follow-up (AID 435011). The assay is classed as functional.
Assay [18] addresses T2, Polyadenylate-binding protein 1. In words: PABP poly(A) RNA binding inhibitors, primary screen, biochemical, fluorescence polarization, uHTS (AID 2014).
Assay [19] addresses T7, Eukaryotic translation initiation factor 4H. In words: human eIF4H binding inhibitors, primary screen, translation initiation inhibitor project, biochemical, uHTS, fluorescence polarization (AID 2012).

T2 sequence (P11940 whole entry): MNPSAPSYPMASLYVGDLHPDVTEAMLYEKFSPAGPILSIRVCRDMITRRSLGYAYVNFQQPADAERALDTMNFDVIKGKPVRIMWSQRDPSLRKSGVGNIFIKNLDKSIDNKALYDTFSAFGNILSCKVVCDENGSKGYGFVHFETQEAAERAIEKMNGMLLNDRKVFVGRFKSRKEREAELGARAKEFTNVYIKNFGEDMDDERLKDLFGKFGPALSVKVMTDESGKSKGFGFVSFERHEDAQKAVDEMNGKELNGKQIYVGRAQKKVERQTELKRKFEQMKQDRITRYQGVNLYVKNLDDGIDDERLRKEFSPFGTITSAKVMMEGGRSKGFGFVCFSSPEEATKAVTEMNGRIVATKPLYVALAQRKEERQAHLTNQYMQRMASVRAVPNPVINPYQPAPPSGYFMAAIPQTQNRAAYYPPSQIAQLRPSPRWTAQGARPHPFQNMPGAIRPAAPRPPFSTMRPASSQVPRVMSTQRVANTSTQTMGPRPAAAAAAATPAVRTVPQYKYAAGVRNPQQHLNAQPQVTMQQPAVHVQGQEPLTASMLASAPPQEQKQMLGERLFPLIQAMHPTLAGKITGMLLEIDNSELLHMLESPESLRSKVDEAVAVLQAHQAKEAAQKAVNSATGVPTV
T4 sequence (Q9HC16 whole entry): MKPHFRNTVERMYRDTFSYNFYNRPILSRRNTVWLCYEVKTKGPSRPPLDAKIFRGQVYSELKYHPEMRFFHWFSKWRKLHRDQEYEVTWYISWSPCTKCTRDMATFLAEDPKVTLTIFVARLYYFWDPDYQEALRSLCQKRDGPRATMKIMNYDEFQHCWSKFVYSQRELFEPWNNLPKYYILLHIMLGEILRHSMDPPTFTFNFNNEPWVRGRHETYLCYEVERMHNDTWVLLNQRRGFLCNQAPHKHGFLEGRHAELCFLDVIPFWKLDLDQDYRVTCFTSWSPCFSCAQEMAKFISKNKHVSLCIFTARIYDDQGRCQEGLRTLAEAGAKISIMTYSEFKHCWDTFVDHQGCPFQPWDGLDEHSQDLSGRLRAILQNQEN
T5 sequence (P31941 whole entry): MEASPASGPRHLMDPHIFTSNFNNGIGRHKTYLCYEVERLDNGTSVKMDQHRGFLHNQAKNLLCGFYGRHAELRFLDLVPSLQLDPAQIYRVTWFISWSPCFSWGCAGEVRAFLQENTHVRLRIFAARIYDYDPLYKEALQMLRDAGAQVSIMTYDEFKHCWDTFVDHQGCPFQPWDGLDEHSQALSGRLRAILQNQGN
Phosphomannomutase 2, sequence (O15305 whole entry): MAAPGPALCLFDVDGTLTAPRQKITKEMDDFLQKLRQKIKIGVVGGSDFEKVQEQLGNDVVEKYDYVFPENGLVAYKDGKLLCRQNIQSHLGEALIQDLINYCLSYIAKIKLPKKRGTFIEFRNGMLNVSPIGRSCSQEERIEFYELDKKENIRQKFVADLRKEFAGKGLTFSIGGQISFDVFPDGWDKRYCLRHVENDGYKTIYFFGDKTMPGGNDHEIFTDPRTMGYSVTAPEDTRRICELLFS
Genome polyprotein, sequence (P29990 2492-3391 limits assumed): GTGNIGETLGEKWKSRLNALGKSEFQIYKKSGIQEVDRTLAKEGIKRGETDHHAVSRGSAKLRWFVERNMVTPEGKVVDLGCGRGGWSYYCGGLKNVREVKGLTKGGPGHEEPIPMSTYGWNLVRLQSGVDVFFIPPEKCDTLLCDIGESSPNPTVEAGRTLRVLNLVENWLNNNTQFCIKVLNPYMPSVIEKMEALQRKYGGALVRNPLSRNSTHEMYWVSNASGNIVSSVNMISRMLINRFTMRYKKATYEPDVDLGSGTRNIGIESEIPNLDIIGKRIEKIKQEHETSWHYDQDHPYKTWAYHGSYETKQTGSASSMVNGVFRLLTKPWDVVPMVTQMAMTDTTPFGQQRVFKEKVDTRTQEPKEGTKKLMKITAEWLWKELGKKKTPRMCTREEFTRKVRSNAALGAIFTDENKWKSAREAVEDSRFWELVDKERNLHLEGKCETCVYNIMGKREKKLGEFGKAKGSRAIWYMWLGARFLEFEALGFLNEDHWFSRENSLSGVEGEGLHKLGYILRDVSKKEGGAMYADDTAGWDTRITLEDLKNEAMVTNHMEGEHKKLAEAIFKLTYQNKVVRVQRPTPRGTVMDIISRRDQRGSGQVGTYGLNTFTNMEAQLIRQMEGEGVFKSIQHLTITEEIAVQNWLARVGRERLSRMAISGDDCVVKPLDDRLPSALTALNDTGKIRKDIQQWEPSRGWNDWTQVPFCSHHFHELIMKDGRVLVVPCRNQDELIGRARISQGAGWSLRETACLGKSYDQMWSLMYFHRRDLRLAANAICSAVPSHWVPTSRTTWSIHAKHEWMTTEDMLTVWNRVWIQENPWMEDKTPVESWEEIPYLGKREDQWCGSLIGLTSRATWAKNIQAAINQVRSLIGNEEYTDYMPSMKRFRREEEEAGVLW
Phosphoethanolamine/phosphocholine phosphatase, sequence (Q8TCT1 whole entry): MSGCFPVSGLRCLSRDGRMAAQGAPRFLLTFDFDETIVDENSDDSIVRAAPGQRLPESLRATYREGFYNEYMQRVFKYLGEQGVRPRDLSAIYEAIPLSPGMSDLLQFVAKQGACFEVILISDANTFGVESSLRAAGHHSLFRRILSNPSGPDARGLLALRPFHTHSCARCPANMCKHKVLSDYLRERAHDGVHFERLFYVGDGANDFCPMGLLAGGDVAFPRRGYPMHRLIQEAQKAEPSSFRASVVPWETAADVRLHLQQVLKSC
CAAX prenyl protease 2, sequence (Q03530 whole entry): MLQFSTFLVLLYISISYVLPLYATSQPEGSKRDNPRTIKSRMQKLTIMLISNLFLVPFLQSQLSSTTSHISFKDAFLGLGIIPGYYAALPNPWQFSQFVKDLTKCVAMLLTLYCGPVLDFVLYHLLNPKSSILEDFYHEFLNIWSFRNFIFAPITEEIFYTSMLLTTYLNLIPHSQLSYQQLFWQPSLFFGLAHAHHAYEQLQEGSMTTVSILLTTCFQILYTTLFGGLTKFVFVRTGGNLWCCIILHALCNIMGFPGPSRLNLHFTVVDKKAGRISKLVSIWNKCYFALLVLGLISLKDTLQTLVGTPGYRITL
NACHT, LRR and PYD domains-containing protein 3, sequence (Q96P20 whole entry, the tested form may be a part): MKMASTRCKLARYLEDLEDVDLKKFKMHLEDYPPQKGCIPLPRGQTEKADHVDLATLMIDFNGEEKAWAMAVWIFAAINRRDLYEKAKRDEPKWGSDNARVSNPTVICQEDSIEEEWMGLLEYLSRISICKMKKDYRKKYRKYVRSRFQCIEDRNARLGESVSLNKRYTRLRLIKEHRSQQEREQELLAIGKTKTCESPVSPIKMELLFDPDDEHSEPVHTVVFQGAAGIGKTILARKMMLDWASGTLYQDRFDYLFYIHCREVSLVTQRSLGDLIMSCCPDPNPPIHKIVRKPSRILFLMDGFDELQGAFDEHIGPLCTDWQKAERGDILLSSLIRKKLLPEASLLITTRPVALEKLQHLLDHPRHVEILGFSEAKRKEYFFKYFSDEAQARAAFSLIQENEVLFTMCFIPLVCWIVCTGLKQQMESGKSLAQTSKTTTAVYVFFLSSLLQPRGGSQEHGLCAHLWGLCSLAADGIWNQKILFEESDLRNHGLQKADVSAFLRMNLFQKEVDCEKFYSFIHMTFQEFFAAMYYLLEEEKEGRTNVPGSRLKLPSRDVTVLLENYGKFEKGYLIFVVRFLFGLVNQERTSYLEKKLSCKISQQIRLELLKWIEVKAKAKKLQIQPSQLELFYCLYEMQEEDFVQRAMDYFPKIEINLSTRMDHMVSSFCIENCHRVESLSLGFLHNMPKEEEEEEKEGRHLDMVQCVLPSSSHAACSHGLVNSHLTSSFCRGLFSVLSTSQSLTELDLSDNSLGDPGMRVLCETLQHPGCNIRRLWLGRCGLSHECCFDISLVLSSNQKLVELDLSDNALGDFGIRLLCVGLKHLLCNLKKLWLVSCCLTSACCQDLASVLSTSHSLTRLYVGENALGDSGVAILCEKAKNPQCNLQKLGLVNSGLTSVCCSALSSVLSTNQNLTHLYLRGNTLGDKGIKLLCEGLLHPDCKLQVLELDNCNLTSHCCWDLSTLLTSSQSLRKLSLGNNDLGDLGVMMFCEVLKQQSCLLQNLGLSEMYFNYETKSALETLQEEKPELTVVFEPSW
Induced myeloid leukemia cell differentiation protein Mcl-1, sequence (Q07820 whole entry): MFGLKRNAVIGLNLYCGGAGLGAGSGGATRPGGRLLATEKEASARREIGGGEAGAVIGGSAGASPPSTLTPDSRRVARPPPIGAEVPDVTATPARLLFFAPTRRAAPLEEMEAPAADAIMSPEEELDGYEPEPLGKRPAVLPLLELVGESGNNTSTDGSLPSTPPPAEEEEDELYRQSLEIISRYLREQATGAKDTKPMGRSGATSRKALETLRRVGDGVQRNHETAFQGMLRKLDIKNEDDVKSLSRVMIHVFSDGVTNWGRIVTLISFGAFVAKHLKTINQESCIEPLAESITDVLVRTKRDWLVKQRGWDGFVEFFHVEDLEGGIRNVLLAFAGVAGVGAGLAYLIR
Diphosphomevalonate decarboxylase, sequence (Q9FD53 whole entry): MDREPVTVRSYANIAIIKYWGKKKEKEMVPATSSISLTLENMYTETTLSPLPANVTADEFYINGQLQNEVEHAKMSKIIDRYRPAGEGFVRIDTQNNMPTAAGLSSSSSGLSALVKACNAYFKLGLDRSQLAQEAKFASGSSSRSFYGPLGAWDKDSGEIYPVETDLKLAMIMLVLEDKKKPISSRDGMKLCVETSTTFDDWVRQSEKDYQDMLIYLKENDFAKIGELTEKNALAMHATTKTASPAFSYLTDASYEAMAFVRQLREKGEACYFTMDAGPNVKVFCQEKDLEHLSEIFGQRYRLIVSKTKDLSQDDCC

On to `COc1ccc2nc(-c3ccco3)c(-c3ccco3)nc2c1`, for which the IC50 was 3.09 µM (active) in [1]; 2.79 µM (active) in assay [2]; > 66 µM (inactive) in assay [3]; 73.9 µM (active) at Genome polyprotein; > 66 µM (inactive) in assay [4].
As to `CCOCCCn1c(=O)c2ccccc2n2c(S)nnc12`, the IC50 is 21.9 µM (active) in [5], 5.54 µM (active) in [6] and > 100 µM (inactive) in [7].
The EC50 is the concentration at which the effect is half-maximal. On to `c1ccc(Sc2cccc3ccccc23)c(CNC2=NCCN2)c1`, for which the EC50 in assay [8] is 3.8 µM (active); in assay [9], > 150 µM (inactive). In addition, the IC50 in [10] was 11.7 µM (active).
In the case of `CN(C)C(=O)c1cccc(-n2sc3ccccc3c2=O)c1`, the IC50 in assay [11] is 24.4 µM (active); on Phosphomannomutase 2, 76.4 µM (active); in assay [12], 139 nM (active); in [13], > 100 µM (inactive).
By AC50 is commonly meant the concentration giving half of the maximal activity seen. On to `CCN(CC)CCN(C(=O)c1cc2ccccc2cc1OC)c1nc2ccc(F)cc2s1`, for which, on CAAX prenyl protease 2, the AC50 was 6.98 µM (active).
On to `CCOC(=O)c1ccc2c(c1)N(CC)C(=O)c1ccccc1S2`, for which the IC50 in assay [14] was 2.24 µM (active); in [15] it was 4.15 µM (active); in [16], 3.48 µM (active); in [17], 20.7 µM (active); in assay [18] it was 12.2 µM (active); in assay [19], > 100 µM (inactive).

Values taken from ChEMBL document CHEMBL1201862, “PubChem BioAssay data set” (2004).
